Experimental data: patent publication US11246945B2, “Cisplatin-loaded microbubbles, pharmaceutical composition for treatment of cancer, method for preparing pharmaceutical compositions and method for treating cancer” (National Defense Medical Center, priority 2019, dated 2022)

Tests used:
[1] = Body weight during the 33-day treatment; assay type: in vivo, SCID mice; settings: 33-day treatment period; without ultrasound
Method: Severe combined immunodeficiency (SCID) mice were subcutaneously implanted with luminescence-labelled hypopharynx carcinoma cell line (FaDu-fLuc/GFP) (2×10^6 cells/mouse) into the right flank region on Day 0. On Day 4, tumor xenograft formation and size in implanted SCID mice were determined by IVIS® bioluminescence imaging system (version 4.4, Caliper Life Sciences, Alameda, Calif., USA). The implanted SCID mice were then classified into group I to group V (hereinafter referred to as “Gps I-V”), and the implanted SCID mice of each group were treated with different pharmaceutical compositions, which are summarized in Table 6 below. Specifically, the mice of Gp I was the control group, and was treated with saline. The mice of Gp II were treated with cisplatin dissolved in saline. The mice of Gp III were treated with saline containing the mixture of cisplatin and albumin microbubbles (concentration: 1.4×10^8 particles/mL), followed by ultrasound exposure (power: 3 W/cm^2, 30 seconds). […] The anti-tumor effect of cisplatin-based chemotherapy was evaluated in vivo on the growth of head and neck cancer by twice-weekly recordings of luciferase bioluminescence data derived from IVIS® images. On day 33, after the IVIS® images of the mice were obtained, the mice were sacrificed and analysed. […]

[2] = system: head and neck cancers; settings: patients with head and neck cancers; cited from earlier work
[3] = intraperitoneal, single 14 mg/kg or 4.6 mg/kg/day for three consecutive days; cited from earlier work
[4] = system: FaDu-fLuc/GFP tumor xenograft; assay: Anti-tumor effect on head and neck cancer xenograft (IVIS bioluminescence); assay type: in vivo, SCID mice; settings: Day 33; without ultrasound exposure
Method: Severe combined immunodeficiency (SCID) mice were subcutaneously implanted with luminescence-labelled hypopharynx carcinoma cell line (FaDu-fLuc/GFP) (2×10^6 cells/mouse) into the right flank region on Day 0. On Day 4, tumor xenograft formation and size in implanted SCID mice were determined by IVIS® bioluminescence imaging system (version 4.4, Caliper Life Sciences, Alameda, Calif., USA). The implanted SCID mice were then classified into group I to group V (hereinafter referred to as “Gps I-V”), and the implanted SCID mice of each group were treated with different pharmaceutical compositions, which are summarized in Table 6 below. Specifically, the mice of Gp I was the control group, and was treated with saline. The mice of Gp II were treated with cisplatin dissolved in saline. The mice of Gp III were treated with saline containing the mixture of cisplatin and albumin microbubbles (concentration: 1.4×10^8 particles/mL), followed by ultrasound exposure (power: 3 W/cm^2, 30 seconds). […] The anti-tumor effect of cisplatin-based chemotherapy was evaluated in vivo on the growth of head and neck cancer by twice-weekly recordings of luciferase bioluminescence data derived from IVIS® images. On day 33, after the IVIS® images of the mice were obtained, the mice were sacrificed and analysed.

## N.N.[Cl][Pt][Cl] [CDDP, Cis-Diamine platinum (II) Dichloride]
[1]
  Body weight gain compared with Gp I, Gp IV and Gp V: statistically smaller body weight gain
[2]
  Median survival time: 151 days
[3]
  Hearing threshold: caused a hearing threshold shift
[4]
  Tumor reduction / inhibition of tumor growth (luminescence flux): significantly better outcomes as compared to Gp IV
